# Assay results reported in article PMC8564765 (Journal of medicinal chemistry, 2021).
# Test system: MPO activity
# Assay: MR imaging of CFA-induced subcutaneous inflammation
# Assay type: in vivo
# Conditions: wild-type mice, 0.3 mmol/kg
structure (smiles),measurement,value
"CNC[C@H](O)[C@@H](O)[C@H](O)[C@H](O)CO.O=C([O-])CN1CCN(CC(=O)[O-])CCN(CC(=O)O)CCN(CC(=O)[O-])CC1.[Gd+3] [DOTA-Gd, gadoterate meglumine]",Course of CNR over 60 min,decreased rapidly over time
